Patent US7163698B2, “Controlled drug delivery system using the conjugation of drug to biodegradable polyester” (priority 1998, dated 2007)
Read-outs that look alike come from different tables or passages of the source.

Columns and labels:
[1] = with polyester polymer carrier; cited from earlier work
[2] = test system: human hepatoblastoma cell line (HepG2); settings: literature value; read-out: reported IC50; cited from earlier work
[3] = test system: mouse EL4 thymoma cells; settings: 240 μg/kg s.c. daily during 12 days, C57BL16 mice
Method: Antitumor activity against solid tumor of free doxorubicin, free PLGA, doxorubicin encapsulated in nanoparticles and doxorubicin conjugated with nanoparticles was evaluated with mouse EL4 thymoma cells. EL4 Cells (2×10^4 cells in 0.1 ml of PBS pH 7.4 buffer) were transplanted into C57BL16 female mice (10 weeks old) subcutaneously on day 0 and drug injection started on day 10, when tumor diameter reached approximately 2 mm.
The mice were divided into five different groups, each group consisting of 6 mice. The first group, control group, was s.c. injected 100 μl PBS pH 7.4 daily during 12 days and the second group free doxorubicin (240 μg/kg body weight). However, the third group was s.c. injected placebo microsphere daily in the first two days, the fourth group nanoparticle conjugated with doxorubicin (2.4 mg/kg body weight) and the fifth group, doxorubicin encapsulated in nanoparticle (1.2 mg/kg body weight).

[4] = test system: human hepatoblastoma cell line (HepG2); assay: Cytotoxicity MTT assay; type: cell-based; settings: HepG2, 72 hrs
Method: Cytotoxicities of doxorubicin and its PLGA oligomer conjugates released from nanoparticles were determined against human hepatoblastoma cell line (HepG2) obtained from Korea Research Institute of Bioscience and Biotechnology. Free doxorubicin and the released fraction from nanoparticles for 19 days incubation were used for determining the inhibition of cell growth using a tetrazolium dye (MTT) assay according to the previously established method [R. I. Freshney, Measurement of Viability and Cytotoxicity, Chapter 19 in Culture of Animal Cells, Third Edition., Wiley-Liss Inc., New York, 1994, pp. 287–307]. Dulbecco's modification of Eagle's MEM (DMEM) was used as a major cell growth medium and a humidified atmosphere (5% CO2) was maintained for cell culture. HepG2 cells harvested in a logarithmic growth phase were seeded on 96 wells at a cell density of 5×10^3 cells/ml. After incubating the cells in a logarithmic phase with various concentrations of free doxorubicin and the released fraction for 72 hrs, the MTT assay was performed and the percentage of cell viability was then determined.

Compound	initial burst effects [1]	IC50 [2] [µM]	antitumor activity (tumor diameter) [3]	IC50 [4] [µM]
gentamycin	over 50%			
COc1cccc2c1C(=O)c1c(O)c3c(c(O)c1C2=O)C[C@@](O)(C(=O)CO)C[C@@H]3O[C@H]1C[C@H](N)[C@H](O)[C@H](C)O1 [free doxorubicin, doxorubicin]		7.3	significant tumor growth inhibition	8.9
